# Source: US20230414637A1 (priority 2020, published 2023)
# Like-named read-outs stand apart in the source and are kept apart here.
# What was measured:
# [1] = Literature aqueous solubility of niclosamide; settings: van Tonder et al [17], converted
# [2] = format: physicochemical
# Text: pH=pKa+Log10[Nic−ve]/[NicOH] Eqn 1
# pHp=pKa+log(S−So)/So Eqn 4
# So=the molar intrinsic solubility of the undissociated acid (NicOH), and S=the molar concentration of the salt form initially added.
# [3] = pH 7.09
# [4] = test system: SARS-CoV-2 in Vero 6 cells; settings: Vero 6 cells, Jeon et al [14]; read-out: IC50 for viral replication; cited from earlier work
# GR = settings: read-out: relative trans-activation potency (EC50); cited from earlier work
# [5] = test system: oxidative phosphorylation; settings: cited from earlier work
# [6] = Equilibrium dissolution of AK Sci niclosamide versus pH (supernatant concentration by UV/Vis at 333 nm); settings: for Average [Nic] (uM) UV/Vis, 333 nm), supernatant concentration: 20° C.
# [7] = Dissolution of niclosamide solvates (water precipitate, acetone and ethanol recrystallized) at pH 9.3; settings: for solubility (equilibrium supernatant concentration several days after dissolution): pH 9.3; for initial dissolution rate, intrinsic parameter: pH 9.3 buffer, 3.5 mgs in 10 mls
# Text: To start to evaluate the various expected polymorphs and to try and obtain a morphology that was perhaps like the purchased materials (of unknown processing), three samples were made i.e., the “water-hydrate” precipitated from ethanol into excess water and two that were recrystallized from acetone and from ethanol.
# It was filtered on a sintered glass filter, washed three times with deionized water, and dried. The material was ground by mortar and pestle ready for the dissolution test and viewed microscopically to evaluate its crystal morphology.
# Each material was also viewed microscopically to evaluate their crystal morphologies.
# Dissolution of the solvates. […] 2 uL aliquots were taken directly from the stirred solution in the 20 mL scintillation vial at appropriate time intervals and absorbance at 333 nm was measured by nanodrop spectrophotometer.
# [8] = for supernatant concentration reached at 3 hrs: more efficient stirring, pH 9.5, nominal 1 mM
# [9] = same pH as Yomesan extraction (pH 9.3)
# [10] = cited from earlier work
# [11] = test system: SARS-CoV-2 in Calu-3 cells; settings: Ko et al [34]; cited from earlier work
# [12] = Supersaturated solution precipitation of niclosamide: amount in solution; settings: pH 9.3, equilibrated
# [13] = Dissolution and conversion of Sigma niclosamide (3 hrs and overnight stirring)
smiles,measurement,setting,value
O.O=C(Nc1ccc([N+](=O)[O-])cc1Cl)c1cc(Cl)ccc1O [Monohydrates HA],solubility of crystal forms in distilled water,[1],2.9 µM
O.O=C(Nc1ccc([N+](=O)[O-])cc1Cl)c1cc(Cl)ccc1O [presumed monohydrate],expected concentration in solution from pHp model,[2]; pH 6,1 uM
same,solubility,[3],1.24 µM
CCN(CC)CCCC(C)Nc1ccnc2cc(Cl)ccc12 (centres unmarked) [chloroquine],IC50,[4],9.12 µM
CCC(=O)O[C@]1(C(=O)SCF)[C@H](C)C[C@H]2[C@@H]3C[C@H](F)C4=CC(=O)C=C[C@]4(C)[C@@]3(F)[C@@H](O)C[C@@]21C [fluticasone propionate],EC50,GR,0.32 ± 0.04 nM
O.O=C(Nc1ccc([N+](=O)[O-])cc1Cl)c1cc(Cl)ccc1O [Monohydrates HB],solubility of crystal forms in distilled water,[1],1.87 µM
N#CC(C#N)=NNc1ccc(OC(F)(F)F)cc1 [FCCP],concentration of uncoupling activity,[5],100 nM
O=C(Nc1ccc([N+](=O)[O-])cc1Cl)c1cc(Cl)ccc1O [Nic−ve],solubility limit of the negatively charged salt,[6]; pH 9.5,~640 µM
same,solubility limit of the deprotonated salt,[6]; pH 9.63,at least 703.6 uM
same,solubility limit of the negatively charged salt,[6]; pH not stated at the place,≥ 670 µM
O=C(Nc1ccc([N+](=O)[O-])cc1Cl)c1cc(Cl)ccc1O [AK Sci Niclosamide],solubility (equilibrium supernatant concentration several days after dissolution),[7],~383 µM
same,pKa fitted from pHp curve to supernatant concentration data,[2]; So 2.53 uM,7.12
same,supernatant concentration reached at 3 hrs,[8]; listed as AK Sci niclosamide,564 µM
same,"fitted logarithmic dissolution rate, pre-ln factor","[8]; pH 8.62, nominal 1 mM, first hour",22
same,"fitted logarithmic dissolution rate, pre-ln factor","[8]; pH 8.72, nominal 1 mM",24
same,"fitted logarithmic dissolution rate, pre-ln factor","[8]; pH 9.06, nominal 1 mM",38
same,initial rate of dissolution / extraction over first three minutes,[8]; pH 9.3 buffer,51.7 µM/min
same,intrinsic dissolution rate,"[8]; pH 9.3 buffer, converted from uM/min",0.28 µg/s
same,"fitted logarithmic dissolution rate, pre-ln factor","[8]; pH 9.36, nominal 1 mM",71
same,clear supernatant solution concentration,[9],520 µM
same,"Average [Nic] (uM) UV/Vis, 333 nm), supernatant concentration","[6]; measured pH 3.64, stirred to equilibrium (48 hrs)",2.53 µM
same,"Average [Nic] (uM) UV/Vis, 333 nm), supernatant concentration","[6]; measured pH 7.05, 48 hrs",8.68 µM
same,"Average [Nic] (uM) UV/Vis, 333 nm), supernatant concentration","[6]; measured pH 7.64, 48 hrs",16.75 µM
same,"Average [Nic] (uM) UV/Vis, 333 nm), supernatant concentration","[6]; measured pH 8.06, 48 hrs",25.83 µM
same,"Average [Nic] (uM) UV/Vis, 333 nm), supernatant concentration","[6]; measured pH 8.26, 48 hrs",47.26 µM
same,"Average [Nic] (uM) UV/Vis, 333 nm), supernatant concentration","[6]; measured pH 8.53, 48 hrs",83.31 µM
same,"Average [Nic] (uM) UV/Vis, 333 nm), supernatant concentration","[6]; measured pH 8.75, 48 hrs",137.29 µM
same,"Average [Nic] (uM) UV/Vis, 333 nm), supernatant concentration","[6]; measured pH 9.04, 48 hrs",215.66 µM
same,"Average [Nic] (uM) UV/Vis, 333 nm), supernatant concentration","[6]; measured pH 9.22, 48 hrs",344.32 µM
same,"Average [Nic] (uM) UV/Vis, 333 nm), supernatant concentration","[6]; measured pH 9.32, 48 hrs",382.68 µM
same,"Average [Nic] (uM) UV/Vis, 333 nm), supernatant concentration","[6]; measured pH 9.4, 48 hrs",466.14 µM
same,"Average [Nic] (uM) UV/Vis, 333 nm), supernatant concentration","[6]; measured pH 9.63, 48 hrs",703.26 µM
same,limiting (intrinsic) solubility So of the protonated acid,[6]; pH 3.66,2.53 µM
same,polymorph stability of excess powder in stirred buffer,"[6]; stirred 24 hrs and longer, days, in presence of original powder",did not readily convert to the less soluble hydrates
Cc1cccc(C)c1OCC(=O)N[C@@H](Cc1ccccc1)[C@@H](O)C[C@H](Cc1ccccc1)NC(=O)[C@H](C(C)C)N1CCCNC1=O [lopinavir],IC50,[4],7.28 µM
CC(C)(C)c1cc(Cl)cc(C(=O)Nc2ccc([N+](=O)[O-])cc2Cl)c1O [S-13],concentration of uncoupling activity,[5]; Terada [39],30 nM
same,pKa,[10]; Terada [39],6.57
O=C(Nc1ccc([N+](=O)[O-])cc1Cl)c1cc(Cl)ccc1O [NicAcetone-recrys],solubility (equilibrium supernatant concentration several days after dissolution),[7]; listed as acetone recrystallized material,79.4 µM
same,"initial dissolution rate, intrinsic parameter",[7],0.0369 µM/mg
N=C(N)c1ccc2cc(OC(=O)c3ccc(N=C(N)N)cc3)ccc2c1 [Nafamostat],antiviral activity,[11],few nanomolar
FC(F)(F)c1nc2c(Cl)c(Cl)c(Cl)c(Cl)c2[nH]1 [TTFB],concentration of uncoupling activity,[5]; Terada [39],100 nM
same,pKa,[10]; in 50% ethanol,5.5
O=C(Nc1ccc([N+](=O)[O-])cc1Cl)c1cc(Cl)ccc1O [precipitated material],solubility of material precipitated in situ from supersaturated solution,[12],180.9 µM
O=C(Nc1ccc([N+](=O)[O-])cc1Cl)c1cc(Cl)ccc1O [Sigma niclosamide],supernatant concentration reached at 3 hrs,[8],680 µM
same,"fitted logarithmic dissolution rate, factor of ln(x)","[8]; pH 9.44 buffer, more optimized (standardized) stirring",116
same,reduction of amount of niclosamide in supernatant solution after overnight equilibration,[13]; over the whole pH range,~3.5 ×
same,solubility after overnight equilibration,[13]; pH 9.3,103 µM
same,polymorph stability of excess powder in stirred buffer,[13]; several hours after the first 3 hrs,converted to a much lower solubility polymorph
same,loss of material concentration from 3 hrs to 24 hrs,[13]; ~pH 9.5,434 µM
same,supernatant niclosamide concentration at 3 hrs,[13]; ~pH 9.5,681 µM
same,supernatant niclosamide concentration after 24 hrs (overnight stirring),"[13]; ~pH 9.5, filtered 0.22 um",247 µM
O=C(Nc1ccc([N+](=O)[O-])cc1Cl)c1cc(Cl)ccc1O [NicEtOH-recrys],"initial dissolution rate, intrinsic parameter",[7],0.0439 µM/mg
"CC(C)(C)c1cc(C=C(C#N)C#N)cc(C(C)(C)C)c1O [SF 6847, 3,5-Di-tert-butyl-4-hydroxy-benzylidene-Malononitrile]",concentration of uncoupling activity,[5]; Terada [39],10 nM
same,pKa,[10]; Terada [39],6.83
O=C(Nc1ccc([N+](=O)[O-])cc1Cl)c1cc(Cl)ccc1O [NicH20ppt],solubility (equilibrium supernatant concentration several days after dissolution),[7]; listed as water solvate,132.6 µM
same,"initial dissolution rate, intrinsic parameter",[7],0.104 µM/mg
O=C(O)c1ccccc1Nc1cccc(C(F)(F)F)c1 [flufenamic acid],concentration of uncoupling activity,[5]; Terada [39],50000 nM
same,pKa,[10]; Terada [39],3.85
Oc1c(Cl)c(Cl)c(Cl)c(Cl)c1Cl [PCP],concentration of uncoupling activity,[5]; Terada [39],1000 nM
same,pKa,[10]; Terada [39],4.80
O=C(Nc1ccc([N+](=O)[O-])cc1Cl)c1cc(Cl)ccc1O [Anhydrate],solubility of crystal forms in distilled water,[1],40.4 µM
